Assay in all cases: KINOMEscan (ScanMAX) kinase profiling
Holding throughout (assay type): binding

Experiment [1] concerns the target T1, panel of 468 kinases (Homo sapiens, UniProt O14730).
T1 construct: purchased KINOMEscan (ScanMAX) service
T1 sequence (O14730 1-519): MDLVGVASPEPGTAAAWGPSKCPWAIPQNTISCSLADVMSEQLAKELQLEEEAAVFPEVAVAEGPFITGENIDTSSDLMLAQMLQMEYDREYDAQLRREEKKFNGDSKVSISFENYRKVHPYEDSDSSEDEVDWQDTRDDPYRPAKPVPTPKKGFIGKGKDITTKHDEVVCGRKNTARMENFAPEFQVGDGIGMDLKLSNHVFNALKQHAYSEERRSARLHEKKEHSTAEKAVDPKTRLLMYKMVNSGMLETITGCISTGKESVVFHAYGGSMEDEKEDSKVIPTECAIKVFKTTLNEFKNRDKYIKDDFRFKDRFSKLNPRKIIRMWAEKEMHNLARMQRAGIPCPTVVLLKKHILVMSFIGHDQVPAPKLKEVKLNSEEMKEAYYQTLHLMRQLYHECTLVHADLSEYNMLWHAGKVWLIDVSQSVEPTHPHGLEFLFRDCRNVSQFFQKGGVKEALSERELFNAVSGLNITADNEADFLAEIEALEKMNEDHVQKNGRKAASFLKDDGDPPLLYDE
The settings on record: RIOK3; 1 μM; read-out: % control.

In experiment [2] the target is T2, panel of 468 kinases (Homo sapiens, UniProt Q8TDR2).
T2 construct: purchased KINOMEscan (ScanMAX) service
The conditions noted are these: STK35; 1 μM; read-out: % control.

Experiment [3] addresses T3, panel of 468 kinases (Homo sapiens, UniProt Q16512).
T3 construct: purchased KINOMEscan (ScanMAX) service
The settings on record: PKN1; 1 μM; read-out: % control.

The target of experiment [4] is T4, panel of 468 kinases (Homo sapiens, UniProt P22455).
T4 construct: purchased KINOMEscan (ScanMAX) service
The settings on record: FGFR4; 1 μM; read-out: % control.

For experiment [5], the target named is T5, panel of 468 kinases (Homo sapiens, UniProt Q13153).
T5 construct: purchased KINOMEscan (ScanMAX) service
The conditions noted are these: PAK1; 1 μM; read-out: % control.

For experiment [6], the target named is T6, panel of 468 kinases (Homo sapiens, UniProt Q9BQI3).
T6 construct: purchased KINOMEscan (ScanMAX) service
The conditions noted are these: EIF2AK1; 1 μM; read-out: % control.

In experiment [7] the target is T7, panel of 468 kinases (Homo sapiens, UniProt P14616).
T7 construct: purchased KINOMEscan (ScanMAX) service
The conditions noted are these: INSRR; 1 μM; read-out: % control.

The target of experiment [8] is T8, panel of 468 kinases (Homo sapiens, UniProt Q9UQM7).
T8 construct: purchased KINOMEscan (ScanMAX) service
The conditions noted are these: CAMK2A; 1 μM; read-out: % control.

Experiment [9] has as its target T9, panel of 468 kinases (Homo sapiens, UniProt Q13705).
T9 construct: purchased KINOMEscan (ScanMAX) service
The settings on record: ACVR2B; 1 μM; read-out: % control.

Experiment [10] concerns the target T10, panel of 468 kinases (Homo sapiens, UniProt Q32MK0).
T10 construct: purchased KINOMEscan (ScanMAX) service
T10 sequence (Q32MK0 1-819): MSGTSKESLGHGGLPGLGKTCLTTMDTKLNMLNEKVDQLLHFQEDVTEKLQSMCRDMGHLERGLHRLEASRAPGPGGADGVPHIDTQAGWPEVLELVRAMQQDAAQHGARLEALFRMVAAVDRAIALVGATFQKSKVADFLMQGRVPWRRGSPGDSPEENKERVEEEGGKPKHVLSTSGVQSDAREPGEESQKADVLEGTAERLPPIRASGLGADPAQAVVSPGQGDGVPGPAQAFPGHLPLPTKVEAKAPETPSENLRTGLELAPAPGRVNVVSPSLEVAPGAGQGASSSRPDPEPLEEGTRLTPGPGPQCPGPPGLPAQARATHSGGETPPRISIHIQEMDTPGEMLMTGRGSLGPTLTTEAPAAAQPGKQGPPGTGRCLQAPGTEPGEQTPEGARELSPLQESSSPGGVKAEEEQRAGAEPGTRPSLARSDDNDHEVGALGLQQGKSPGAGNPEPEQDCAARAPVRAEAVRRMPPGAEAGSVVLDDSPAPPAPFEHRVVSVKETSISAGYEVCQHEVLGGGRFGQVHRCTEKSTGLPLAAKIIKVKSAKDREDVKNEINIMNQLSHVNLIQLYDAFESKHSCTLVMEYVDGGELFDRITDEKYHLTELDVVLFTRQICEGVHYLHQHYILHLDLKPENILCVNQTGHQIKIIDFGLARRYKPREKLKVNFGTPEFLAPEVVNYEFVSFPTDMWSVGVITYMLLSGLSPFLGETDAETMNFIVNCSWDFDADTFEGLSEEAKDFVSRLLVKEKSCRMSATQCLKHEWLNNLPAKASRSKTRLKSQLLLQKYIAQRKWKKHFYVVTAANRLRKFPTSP
The conditions noted are these: MLCK; 1 μM; read-out: % control.

In experiment [11] the target is T11, panel of 468 kinases (Homo sapiens, UniProt P49761).
T11 construct: purchased KINOMEscan (ScanMAX) service
The settings on record: CLK3; 1 μM; read-out: % control.

Experiment [12] addresses T12, panel of 468 kinases (Homo sapiens, UniProt Q9UPE1).
T12 construct: purchased KINOMEscan (ScanMAX) service
The conditions noted are these: SRPK3; 1 μM; read-out: % control.

T7 sequence (P14616 27-1297): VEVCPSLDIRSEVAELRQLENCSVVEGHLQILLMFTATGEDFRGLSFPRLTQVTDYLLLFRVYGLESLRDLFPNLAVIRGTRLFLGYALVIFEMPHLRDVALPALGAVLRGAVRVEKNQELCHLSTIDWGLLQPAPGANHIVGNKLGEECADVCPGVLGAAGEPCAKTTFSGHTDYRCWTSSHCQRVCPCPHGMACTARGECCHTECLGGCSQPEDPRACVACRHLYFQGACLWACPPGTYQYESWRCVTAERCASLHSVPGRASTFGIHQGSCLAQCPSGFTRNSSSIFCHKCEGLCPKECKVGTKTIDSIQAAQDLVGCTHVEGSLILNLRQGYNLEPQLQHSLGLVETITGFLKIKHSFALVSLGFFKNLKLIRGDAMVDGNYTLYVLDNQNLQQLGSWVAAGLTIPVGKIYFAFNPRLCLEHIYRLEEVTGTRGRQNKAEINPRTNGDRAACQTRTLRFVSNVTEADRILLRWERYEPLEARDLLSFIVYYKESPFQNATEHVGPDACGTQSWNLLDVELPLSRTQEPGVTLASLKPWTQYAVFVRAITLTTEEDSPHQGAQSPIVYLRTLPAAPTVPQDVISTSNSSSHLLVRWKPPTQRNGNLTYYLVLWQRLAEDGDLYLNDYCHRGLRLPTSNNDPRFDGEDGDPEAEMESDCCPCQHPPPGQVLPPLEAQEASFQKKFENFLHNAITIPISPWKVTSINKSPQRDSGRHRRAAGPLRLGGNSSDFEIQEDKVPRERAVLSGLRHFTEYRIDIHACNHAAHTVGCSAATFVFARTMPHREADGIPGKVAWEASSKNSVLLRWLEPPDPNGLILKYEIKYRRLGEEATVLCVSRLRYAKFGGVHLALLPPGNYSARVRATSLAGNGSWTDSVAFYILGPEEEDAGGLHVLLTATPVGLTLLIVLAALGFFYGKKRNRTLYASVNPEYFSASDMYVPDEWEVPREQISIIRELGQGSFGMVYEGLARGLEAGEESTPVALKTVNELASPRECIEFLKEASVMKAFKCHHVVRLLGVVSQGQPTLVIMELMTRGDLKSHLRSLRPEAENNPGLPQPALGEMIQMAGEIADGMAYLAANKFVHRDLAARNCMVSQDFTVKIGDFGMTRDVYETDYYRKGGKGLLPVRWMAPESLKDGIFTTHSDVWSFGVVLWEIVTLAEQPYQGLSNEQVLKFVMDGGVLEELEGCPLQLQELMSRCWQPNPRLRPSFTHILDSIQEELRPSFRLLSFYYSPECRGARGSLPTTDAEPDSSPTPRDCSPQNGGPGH
T12 sequence (Q9UPE1 whole entry): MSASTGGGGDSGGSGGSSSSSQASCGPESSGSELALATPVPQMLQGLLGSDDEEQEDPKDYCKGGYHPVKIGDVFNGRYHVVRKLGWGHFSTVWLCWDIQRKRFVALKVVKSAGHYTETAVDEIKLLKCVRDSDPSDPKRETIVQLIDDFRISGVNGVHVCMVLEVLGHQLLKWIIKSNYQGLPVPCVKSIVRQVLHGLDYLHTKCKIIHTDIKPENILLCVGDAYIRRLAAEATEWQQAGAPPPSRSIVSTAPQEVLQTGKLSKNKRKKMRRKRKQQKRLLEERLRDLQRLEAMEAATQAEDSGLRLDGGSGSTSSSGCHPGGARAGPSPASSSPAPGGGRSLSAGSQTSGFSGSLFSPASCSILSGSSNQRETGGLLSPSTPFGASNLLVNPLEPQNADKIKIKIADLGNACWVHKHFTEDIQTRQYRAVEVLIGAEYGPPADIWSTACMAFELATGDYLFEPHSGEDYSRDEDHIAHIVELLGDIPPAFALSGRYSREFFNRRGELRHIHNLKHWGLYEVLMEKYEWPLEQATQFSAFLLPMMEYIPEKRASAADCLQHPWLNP
T3 sequence (Q16512 whole entry): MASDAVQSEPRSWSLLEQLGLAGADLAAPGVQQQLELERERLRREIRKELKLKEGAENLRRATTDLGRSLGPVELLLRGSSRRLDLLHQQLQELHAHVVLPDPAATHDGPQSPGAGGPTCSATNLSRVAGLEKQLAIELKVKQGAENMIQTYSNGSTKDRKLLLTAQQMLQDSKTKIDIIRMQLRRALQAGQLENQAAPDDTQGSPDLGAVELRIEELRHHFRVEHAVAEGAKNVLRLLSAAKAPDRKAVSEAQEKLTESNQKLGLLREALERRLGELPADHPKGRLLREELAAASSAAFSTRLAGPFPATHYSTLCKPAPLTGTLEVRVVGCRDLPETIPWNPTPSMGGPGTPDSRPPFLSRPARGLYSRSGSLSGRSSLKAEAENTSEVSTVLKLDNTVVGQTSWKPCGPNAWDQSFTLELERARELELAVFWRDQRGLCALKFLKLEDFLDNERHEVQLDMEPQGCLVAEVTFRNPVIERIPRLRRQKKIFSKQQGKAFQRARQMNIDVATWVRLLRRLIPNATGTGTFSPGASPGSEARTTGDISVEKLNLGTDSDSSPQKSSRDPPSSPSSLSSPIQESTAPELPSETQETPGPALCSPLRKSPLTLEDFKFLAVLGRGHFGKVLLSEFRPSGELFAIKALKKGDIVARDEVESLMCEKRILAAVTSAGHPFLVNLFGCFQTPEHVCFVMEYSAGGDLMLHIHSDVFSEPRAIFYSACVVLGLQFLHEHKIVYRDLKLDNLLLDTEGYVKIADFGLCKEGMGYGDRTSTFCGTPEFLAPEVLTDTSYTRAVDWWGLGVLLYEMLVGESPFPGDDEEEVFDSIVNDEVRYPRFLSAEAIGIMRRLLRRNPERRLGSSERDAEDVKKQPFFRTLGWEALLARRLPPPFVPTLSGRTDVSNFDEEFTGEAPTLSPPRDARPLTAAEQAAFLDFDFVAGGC
T8 sequence (Q9UQM7 whole entry): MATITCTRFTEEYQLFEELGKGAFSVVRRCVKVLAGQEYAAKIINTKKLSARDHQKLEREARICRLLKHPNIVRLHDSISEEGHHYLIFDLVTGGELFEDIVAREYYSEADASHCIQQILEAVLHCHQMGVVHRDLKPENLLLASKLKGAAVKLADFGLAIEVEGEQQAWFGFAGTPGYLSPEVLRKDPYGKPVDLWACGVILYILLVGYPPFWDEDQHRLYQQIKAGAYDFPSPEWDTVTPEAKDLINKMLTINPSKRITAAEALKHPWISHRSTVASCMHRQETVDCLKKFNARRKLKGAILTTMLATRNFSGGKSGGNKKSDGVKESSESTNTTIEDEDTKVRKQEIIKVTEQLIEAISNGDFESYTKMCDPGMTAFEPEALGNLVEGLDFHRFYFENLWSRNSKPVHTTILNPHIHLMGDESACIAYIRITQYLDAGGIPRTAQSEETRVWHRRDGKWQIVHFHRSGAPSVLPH
T11 sequence (P49761 whole entry): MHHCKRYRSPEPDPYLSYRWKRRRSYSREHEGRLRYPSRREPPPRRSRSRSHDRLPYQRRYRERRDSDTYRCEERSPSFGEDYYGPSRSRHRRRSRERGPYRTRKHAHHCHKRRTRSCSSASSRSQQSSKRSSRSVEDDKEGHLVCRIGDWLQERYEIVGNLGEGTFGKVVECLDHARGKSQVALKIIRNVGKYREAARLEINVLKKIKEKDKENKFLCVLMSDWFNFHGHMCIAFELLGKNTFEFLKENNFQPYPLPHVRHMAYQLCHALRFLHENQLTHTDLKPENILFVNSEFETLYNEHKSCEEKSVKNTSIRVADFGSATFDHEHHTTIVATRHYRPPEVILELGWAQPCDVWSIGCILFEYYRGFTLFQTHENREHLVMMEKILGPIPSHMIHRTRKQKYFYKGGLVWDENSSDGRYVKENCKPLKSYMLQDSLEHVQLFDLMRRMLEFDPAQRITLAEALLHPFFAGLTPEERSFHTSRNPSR
T4 sequence (P22455 22-802): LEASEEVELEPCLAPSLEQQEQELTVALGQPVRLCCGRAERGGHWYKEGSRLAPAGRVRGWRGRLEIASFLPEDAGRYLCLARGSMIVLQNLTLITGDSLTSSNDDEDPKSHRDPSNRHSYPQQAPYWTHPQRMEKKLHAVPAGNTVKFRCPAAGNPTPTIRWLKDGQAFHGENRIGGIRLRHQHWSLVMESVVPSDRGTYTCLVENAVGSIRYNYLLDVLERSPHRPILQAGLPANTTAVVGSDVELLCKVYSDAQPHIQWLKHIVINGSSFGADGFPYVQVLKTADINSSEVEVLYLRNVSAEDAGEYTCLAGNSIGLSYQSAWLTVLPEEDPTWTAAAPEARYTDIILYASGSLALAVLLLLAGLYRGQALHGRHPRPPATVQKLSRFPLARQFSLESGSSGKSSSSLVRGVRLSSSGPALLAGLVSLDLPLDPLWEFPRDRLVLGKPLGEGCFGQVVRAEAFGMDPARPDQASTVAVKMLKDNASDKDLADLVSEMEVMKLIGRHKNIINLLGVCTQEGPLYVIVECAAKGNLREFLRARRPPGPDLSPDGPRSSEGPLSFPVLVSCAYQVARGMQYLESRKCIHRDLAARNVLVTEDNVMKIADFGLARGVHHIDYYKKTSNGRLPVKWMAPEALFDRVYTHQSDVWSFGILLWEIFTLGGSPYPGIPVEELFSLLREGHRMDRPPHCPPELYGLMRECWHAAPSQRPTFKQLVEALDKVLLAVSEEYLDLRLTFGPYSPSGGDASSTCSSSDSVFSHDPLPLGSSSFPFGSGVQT
T2 sequence (Q8TDR2 whole entry): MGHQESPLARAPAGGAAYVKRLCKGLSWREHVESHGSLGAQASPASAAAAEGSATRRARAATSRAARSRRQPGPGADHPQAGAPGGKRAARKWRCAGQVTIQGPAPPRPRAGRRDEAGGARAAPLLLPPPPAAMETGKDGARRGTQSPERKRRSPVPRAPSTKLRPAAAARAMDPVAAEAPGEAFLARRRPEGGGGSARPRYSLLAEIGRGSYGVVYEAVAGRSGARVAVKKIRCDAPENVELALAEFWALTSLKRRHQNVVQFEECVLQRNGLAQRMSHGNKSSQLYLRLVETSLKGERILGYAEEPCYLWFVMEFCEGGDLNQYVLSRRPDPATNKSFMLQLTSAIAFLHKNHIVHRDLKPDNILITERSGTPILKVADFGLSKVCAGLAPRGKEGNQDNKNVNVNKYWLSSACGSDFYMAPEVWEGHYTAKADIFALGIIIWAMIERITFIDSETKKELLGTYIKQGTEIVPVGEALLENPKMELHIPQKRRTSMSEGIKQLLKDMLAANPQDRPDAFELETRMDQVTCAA

As to `CNc1nc(Nc2ccc(C(=O)N3CCC(N4CCOCC4)CC3)c3c2OCO3)nc2[nH]cc(Cl)c12` [Compound 75, (7-((5-chloro-4-(methylamino)-7H-pyrrolo[2,3-d]pyrimidin-2-yl)amino)benzo[d][1,3]dioxol-4-yl)(4-morpholinopiperidin-1-yl)methanone], the remaining binding at 1 µM worked out at 28% at panel of 468 kinases [1]; 100% at panel of 468 kinases [2]; 98% on panel of 468 kinases [3]; 100% on panel of 468 kinases [4]; 100% on panel of 468 kinases [5]; 62% on panel of 468 kinases [6]. Moreover, the remaining binding at 1 µM on panel of 468 kinases [7] was 88%; on panel of 468 kinases [8] it was 70%; at panel of 468 kinases [9] it was 95%; at panel of 468 kinases [10] it was 35%; at panel of 468 kinases [11] it was 58%; at panel of 468 kinases [12], 40%.
Consider `CNc1nc(Nc2ccc(P3(=O)CCN(C4CCOCC4)CC3)cc2OC)nc2[nH]cc(Cl)c12` [Compound 77, 4-(4-((5-chloro-4-(methylamino)-7H-pyrrolo[2,3-d]pyrimidin-2-yl)amino)-3-methoxyphenyl)-1-(tetrahydro-2H-pyran-4-yl)-1,4-azaphosphinane 4-oxide], for which the remaining binding at 1 µM at panel of 468 kinases [1] was determined as 88%; at panel of 468 kinases [2], 100%; at panel of 468 kinases [3] it was 99%; at panel of 468 kinases [4] it was 98%; at panel of 468 kinases [5], 100%; on panel of 468 kinases [6] it was 81%. Also, the remaining binding at 1 µM at panel of 468 kinases [7] was 62%; at panel of 468 kinases [8], 88%; on panel of 468 kinases [9], 73%; at panel of 468 kinases [10], 98%; at panel of 468 kinases [11], 93%; at panel of 468 kinases [12], 88%.
For the molecule `CNc1nc(Nc2ccc(S(=O)(=O)N3CCC(N4CCOCC4)CC3)cc2OC)nc2[nH]cc(Cl)c12` [Compound 12, 5-chloro-N2-(2-methoxy-4-((4-morpholinopiperidin-1-yl)sulfonyl)phenyl)-N4-methyl-7H-pyrrolo[2,3-d]pyrimidine-2,4-diamine], the remaining binding at 1 µM at panel of 468 kinases [1] was found to be 89%; on panel of 468 kinases [2] it was 100%; at panel of 468 kinases [3], 100%; on panel of 468 kinases [4], 90%; at panel of 468 kinases [5], 100%; at panel of 468 kinases [6], 100%. The remaining binding at 1 µM was found to be 85% on panel of 468 kinases [7]; 100% at panel of 468 kinases [8]; 79% at panel of 468 kinases [9]; 100% on panel of 468 kinases [10]; 77% on panel of 468 kinases [11]; 99% on panel of 468 kinases [12].

Source of the values: US12479847B2 (DANA-FARBER CANCER INSTITUTE, INC., priority 2019, dated 2025).
